Experimental data: publication PMC9060145 (Skin Health and Disease, 2021)

How the values were obtained:
CYP2C8 [1] = molecular target: T1, CYP2C8 (Homo sapiens, UniProt P10632); assay: CYP450 inhibition assay, human liver microsomes; assay type: biochemical; set-up: from tissue; host or cells: human liver microsomes (per the earlier reading and the cited method); settings: substrate paclitaxel
T1 sequence (P10632 1-490): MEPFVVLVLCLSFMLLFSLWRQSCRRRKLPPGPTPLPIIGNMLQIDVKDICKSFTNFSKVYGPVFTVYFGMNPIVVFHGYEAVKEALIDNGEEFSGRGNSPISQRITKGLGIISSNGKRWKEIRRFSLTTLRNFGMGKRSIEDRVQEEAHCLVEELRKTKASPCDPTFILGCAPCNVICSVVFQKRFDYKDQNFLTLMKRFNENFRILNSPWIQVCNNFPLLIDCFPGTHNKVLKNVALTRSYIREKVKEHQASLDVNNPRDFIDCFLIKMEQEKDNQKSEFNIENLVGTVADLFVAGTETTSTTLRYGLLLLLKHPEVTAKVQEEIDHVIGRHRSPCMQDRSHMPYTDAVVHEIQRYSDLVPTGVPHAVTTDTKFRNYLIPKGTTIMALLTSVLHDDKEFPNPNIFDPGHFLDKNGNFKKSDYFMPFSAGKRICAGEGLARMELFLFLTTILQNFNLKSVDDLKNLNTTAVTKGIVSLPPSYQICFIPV

CYP2C8 [2] = molecular target: T1, CYP2C8; assay: Qualitative CYP2C8 screening, Vivid CYP2C8 Green kit, fluorimetry; assay type: biochemical; set-up: purchased Life Technologies; host or cells: Baculosomes; settings: recombinant CYP2C8 Baculosomes, probe Vivid DBOMF, 1 µM (1000 nM) compound, substrate DBOMF
Experimental: CYP450 inhibition assays (excluding CYP19 and 1 µM CYP2C8) were performed as previously described.[31] Substrate metabolite formation was measured by HPLC‐MS/MS. Percent of control activity was determined by comparing metabolite peak areas with and without test compound. Qualitative screening of CYP2C8 (1 µM) and CYP19 is described in detail in Supporting Information. Reference compound IC50 values were determined by non‐linear regression analysis using Hill equation curve fitting.
A kinetic reaction was carried out for CYP2C8 screening in triplicate according to the Vivid? CYP450 Screening Kit manual protocol (MAN0003095). Briefly, a master pre-mix composed of CYP2C8 Baculosomes®, regeneration system of human P450 reductase/human cytochrome b5, and reaction buffer was prepared before adding 50 µL to each well in a black 96-well plate. Test compounds, positive inhibition control, and solvent controls were prepared as a 2.5X concentration with DMSO in reaction buffer of which 40 µL was dispensed into the 96-well plate. […] The test samples were pre-incubated at 37 °C for 15 min in the fluorescent microplate reader before adding a 10 µL mixture of substrate and NADP^+. Immediately, the plate was read at 2 min intervals over a 30 min time period at 37 °C. The raw data in relative fluorescent units (RFU) was analyzed according to the kinetic assay mode as outlined in the published protocol.

**Q.** CC(C)(O)c1ccccc1CC[C@@H](SCC1(CC(=O)O)CC1)c1cccc(/C=C/c2ccc3ccc(Cl)cc3n2)c1 [montelukast] was tested. Which “nH (hill coefficient)” value (CYP2C8 [1]) did it give?
**A.** 0.6

**Q.** What about the inhibition at 30 min, 1 µM (CYP2C8 [2]) of the same molecule?
**A.** 100%
